Laboratory results: the NIST ThermoML archive (doi:10.1016/j.jct.2009.11.004)
Numbers after ± are expanded uncertainties.

test: refractive index (Na D-line) (dimensionless); settings: 293.15 K; 101.33 kPa; Liquid; Standard Abbe refractometry

SMILES	refractive index
CCCCCCCC[n+]1ccccc1.O=S(=O)([N-]S(=O)(=O)C(F)(F)F)C(F)(F)F [1-octylpyridinium bis((trifluoromethyl)sulfonyl)amide]	1.4487 ± 0.00059
CCCCCCCCCC[n+]1ccccc1.O=S(=O)([N-]S(=O)(=O)C(F)(F)F)C(F)(F)F [1-decylpyridinium bis(trifluoromethylsulfonyl)imide]	1.45007 ± 0.00059
CCCC[n+]1ccccc1.O=S(=O)([N-]S(=O)(=O)C(F)(F)F)C(F)(F)F [1-butylpyridinium bis[(trifluoromethyl)sulfonyl]imide]	1.44537 ± 0.0006

same assay, conditions: 298.15 K; 101.33 kPa; Liquid; Standard Abbe refractometry

SMILES	refractive index
CCCCCCCCCCCC[n+]1ccccc1.O=S(=O)([N-]S(=O)(=O)C(F)(F)F)C(F)(F)F [1-dodecylpyridinium bis(trifluoromethylsulfonyl)imide]	1.44969 ± 0.00059
CCCCCC[n+]1ccn(C)c1.O=S(=O)([N-]S(=O)(=O)C(F)(F)F)C(F)(F)F	1.4318 ± 0.00051
CCCCCCCC[n+]1ccccc1.O=S(=O)([N-]S(=O)(=O)C(F)(F)F)C(F)(F)F [1-octylpyridinium bis((trifluoromethyl)sulfonyl)amide]	1.44723 ± 0.00059
CCCCCCCCCC[n+]1ccccc1.O=S(=O)([N-]S(=O)(=O)C(F)(F)F)C(F)(F)F [1-decylpyridinium bis(trifluoromethylsulfonyl)imide]	1.44859 ± 0.00059
CCCC[n+]1ccccc1.O=S(=O)([N-]S(=O)(=O)C(F)(F)F)C(F)(F)F [1-butylpyridinium bis[(trifluoromethyl)sulfonyl]imide]	1.44379 ± 0.0006

same assay, conditions: 303.15 K; 101.33 kPa; Liquid; Standard Abbe refractometry

SMILES	refractive index
CCCCCCCCCCCC[n+]1ccccc1.O=S(=O)([N-]S(=O)(=O)C(F)(F)F)C(F)(F)F [1-dodecylpyridinium bis(trifluoromethylsulfonyl)imide]	1.44818 ± 0.00059
CCCCCCCC[n+]1ccccc1.O=S(=O)([N-]S(=O)(=O)C(F)(F)F)C(F)(F)F [1-octylpyridinium bis((trifluoromethyl)sulfonyl)amide]	1.44568 ± 0.00059
CCCCCCCCCC[n+]1ccccc1.O=S(=O)([N-]S(=O)(=O)C(F)(F)F)C(F)(F)F [1-decylpyridinium bis(trifluoromethylsulfonyl)imide]	1.44703 ± 0.00059
CCCC[n+]1ccccc1.O=S(=O)([N-]S(=O)(=O)C(F)(F)F)C(F)(F)F [1-butylpyridinium bis[(trifluoromethyl)sulfonyl]imide]	1.44211 ± 0.0006

same assay, conditions: 308.15 K; 101.33 kPa; Liquid; Standard Abbe refractometry

SMILES	refractive index
CCCCCCCCCCCC[n+]1ccccc1.O=S(=O)([N-]S(=O)(=O)C(F)(F)F)C(F)(F)F [1-dodecylpyridinium bis(trifluoromethylsulfonyl)imide]	1.44668 ± 0.00059
CCCCCCCC[n+]1ccccc1.O=S(=O)([N-]S(=O)(=O)C(F)(F)F)C(F)(F)F [1-octylpyridinium bis((trifluoromethyl)sulfonyl)amide]	1.44413 ± 0.00059
CCCCCCCCCC[n+]1ccccc1.O=S(=O)([N-]S(=O)(=O)C(F)(F)F)C(F)(F)F [1-decylpyridinium bis(trifluoromethylsulfonyl)imide]	1.44546 ± 0.00059
CCCC[n+]1ccccc1.O=S(=O)([N-]S(=O)(=O)C(F)(F)F)C(F)(F)F [1-butylpyridinium bis[(trifluoromethyl)sulfonyl]imide]	1.44057 ± 0.00059

same assay, conditions: 313.15 K; 101.33 kPa; Liquid; Standard Abbe refractometry

SMILES	refractive index
CCCCCCCCCCCC[n+]1ccccc1.O=S(=O)([N-]S(=O)(=O)C(F)(F)F)C(F)(F)F [1-dodecylpyridinium bis(trifluoromethylsulfonyl)imide]	1.44524 ± 0.00058
CCCCCCCC[n+]1ccccc1.O=S(=O)([N-]S(=O)(=O)C(F)(F)F)C(F)(F)F [1-octylpyridinium bis((trifluoromethyl)sulfonyl)amide]	1.44262 ± 0.00059
CCCCCCCCCC[n+]1ccccc1.O=S(=O)([N-]S(=O)(=O)C(F)(F)F)C(F)(F)F [1-decylpyridinium bis(trifluoromethylsulfonyl)imide]	1.44391 ± 0.00059
CCCC[n+]1ccccc1.O=S(=O)([N-]S(=O)(=O)C(F)(F)F)C(F)(F)F [1-butylpyridinium bis[(trifluoromethyl)sulfonyl]imide]	1.43911 ± 0.00058

same assay, conditions: 318.15 K; 101.33 kPa; Liquid; Standard Abbe refractometry

SMILES	refractive index
CCCCCCCCCCCC[n+]1ccccc1.O=S(=O)([N-]S(=O)(=O)C(F)(F)F)C(F)(F)F [1-dodecylpyridinium bis(trifluoromethylsulfonyl)imide]	1.44379 ± 0.00058
CCCCCCCC[n+]1ccccc1.O=S(=O)([N-]S(=O)(=O)C(F)(F)F)C(F)(F)F [1-octylpyridinium bis((trifluoromethyl)sulfonyl)amide]	1.44115 ± 0.00058
CCCCCCCCCC[n+]1ccccc1.O=S(=O)([N-]S(=O)(=O)C(F)(F)F)C(F)(F)F [1-decylpyridinium bis(trifluoromethylsulfonyl)imide]	1.44239 ± 0.00059
CCCC[n+]1ccccc1.O=S(=O)([N-]S(=O)(=O)C(F)(F)F)C(F)(F)F [1-butylpyridinium bis[(trifluoromethyl)sulfonyl]imide]	1.43769 ± 0.00058

same assay, conditions: 323.15 K; 101.33 kPa; Liquid; Standard Abbe refractometry

SMILES	refractive index
CCCCCCCCCCCC[n+]1ccccc1.O=S(=O)([N-]S(=O)(=O)C(F)(F)F)C(F)(F)F [1-dodecylpyridinium bis(trifluoromethylsulfonyl)imide]	1.44235 ± 0.00058
CCCCCCCC[n+]1ccccc1.O=S(=O)([N-]S(=O)(=O)C(F)(F)F)C(F)(F)F [1-octylpyridinium bis((trifluoromethyl)sulfonyl)amide]	1.43972 ± 0.00058
CCCCCCCCCC[n+]1ccccc1.O=S(=O)([N-]S(=O)(=O)C(F)(F)F)C(F)(F)F [1-decylpyridinium bis(trifluoromethylsulfonyl)imide]	1.44091 ± 0.00059
CCCC[n+]1ccccc1.O=S(=O)([N-]S(=O)(=O)C(F)(F)F)C(F)(F)F [1-butylpyridinium bis[(trifluoromethyl)sulfonyl]imide]	1.43631 ± 0.00057

same assay, conditions: 328.15 K; 101.33 kPa; Liquid; Standard Abbe refractometry

SMILES	refractive index
CCCCCCCCCCCC[n+]1ccccc1.O=S(=O)([N-]S(=O)(=O)C(F)(F)F)C(F)(F)F [1-dodecylpyridinium bis(trifluoromethylsulfonyl)imide]	1.4409 ± 0.00058
CCCCCCCC[n+]1ccccc1.O=S(=O)([N-]S(=O)(=O)C(F)(F)F)C(F)(F)F [1-octylpyridinium bis((trifluoromethyl)sulfonyl)amide]	1.43827 ± 0.00058
CCCCCCCCCC[n+]1ccccc1.O=S(=O)([N-]S(=O)(=O)C(F)(F)F)C(F)(F)F [1-decylpyridinium bis(trifluoromethylsulfonyl)imide]	1.43943 ± 0.00059
CCCC[n+]1ccccc1.O=S(=O)([N-]S(=O)(=O)C(F)(F)F)C(F)(F)F [1-butylpyridinium bis[(trifluoromethyl)sulfonyl]imide]	1.43496 ± 0.00057

same assay, conditions: 333.15 K; 101.33 kPa; Liquid; Standard Abbe refractometry

SMILES	refractive index
CCCCCCCCCCCC[n+]1ccccc1.O=S(=O)([N-]S(=O)(=O)C(F)(F)F)C(F)(F)F [1-dodecylpyridinium bis(trifluoromethylsulfonyl)imide]	1.43946 ± 0.00058
CCCCCCCC[n+]1ccccc1.O=S(=O)([N-]S(=O)(=O)C(F)(F)F)C(F)(F)F [1-octylpyridinium bis((trifluoromethyl)sulfonyl)amide]	1.43681 ± 0.00058
CCCCCCCCCC[n+]1ccccc1.O=S(=O)([N-]S(=O)(=O)C(F)(F)F)C(F)(F)F [1-decylpyridinium bis(trifluoromethylsulfonyl)imide]	1.43796 ± 0.00059
CCCC[n+]1ccccc1.O=S(=O)([N-]S(=O)(=O)C(F)(F)F)C(F)(F)F [1-butylpyridinium bis[(trifluoromethyl)sulfonyl]imide]	1.43359 ± 0.00058
